Data on four compounds can be found in paper PMC3832641, “Inhibition of Leishmania (Leishmania) amazonensis and Rat Arginases by Green Tea EGCG, (+)-Catechin and (−)-Epicatechin: A Comparative Structural Analysis of Enzyme-Inhibitor Interactions” (PLoS ONE, 2013).

In test [1] the target is T1, rat liver arginase (ARG-1) (Rattus norvegicus, UniProt P07824).
T1 construct: Rat liver arginase (ARG-1) was prepared by lysing 5 g of liver cells; from tissue; host or cells: rat liver
T1 sequence (P07824 1-323): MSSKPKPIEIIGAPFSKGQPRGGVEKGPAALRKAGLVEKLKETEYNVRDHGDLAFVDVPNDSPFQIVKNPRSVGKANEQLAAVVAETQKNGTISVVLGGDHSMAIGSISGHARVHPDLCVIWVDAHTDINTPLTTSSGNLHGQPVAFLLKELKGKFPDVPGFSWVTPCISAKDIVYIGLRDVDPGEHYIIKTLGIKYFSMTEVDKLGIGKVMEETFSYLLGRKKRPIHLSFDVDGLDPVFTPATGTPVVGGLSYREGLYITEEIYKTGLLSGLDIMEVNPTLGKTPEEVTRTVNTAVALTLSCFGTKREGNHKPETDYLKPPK
The experiment in a line: Inhibition of rat liver arginase (ARG-1). As to conditions: for Inhibition of ARG-1: inhibitors at 10 µM or 100 µM; for inhibition at 1000 µM: inhibitors at 1000 µM. In kind it is biochemical.

Test [2] concerns L. (L.) donovani amastigotes. Further details: method as in PMID 16569852. As to conditions: cited from earlier work.
Test [3] has as its target T2, recombinant arginase from Leishmania amazonensis (ARG-L) (Leishmania amazonensis, UniProt O96394). Description: biochemical.
Test [4] deals with T2, recombinant arginase from Leishmania amazonensis (ARG-L). Description: ARG-L enzyme kinetics: Ki, Ki' and mechanism of inhibition (Dixon and Cornish-Bowden plots). In kind it is biochemical. Conditions: for Ki': Cornish-Bowden plot, dissociation constant of enzyme-inhibitor-substrate complex; for Ki' / Ki: mean ± SEM; for Mode of inhibition: Dixon and Cornish-Bowden plots; for Ki: Dixon plot, dissociation constant of enzyme-inhibitor complex. The procedure: All reactions were performed in CHES buffer, 50 mM, pH 9.5, containing various concentrations of the substrate L-[…].5, 25, 50 and 100 mM) at pH 9.5. Inhibitors were used at three different concentrations similar to the IC50. The different substrate and inhibitor concentrations were obtained by serial dilution. A mixture, M1, containing L-arginine (pH 9.5) at double the desired concentration and a second mixture, M2, containing the enzyme (2000 units) diluted in 125 mM CHES buffer (pH 9.5) were prepared. The reaction mixture was obtained by homogenizing 50 μL of M1, 10 μL of inhibitor and adding 40 μL of M2. The addition of M2 was synchronized every 15 seconds, followed by immediate incubation in a water bath for 15 minutes at 37°C. The urea produced was analyzed as described above. […] Each constant was determined by calculating X values at the intersection points between two lines obtained by linear regression. […] Ki and Ki' is a positive value of the calculated X (Ki = -X). For three different values of S, three lines were drawn for 1/v against i (Dixon plot) and three lines for S/v against i (Cornish-Bowden plot). In the Dixon plot, the lines intersect at a point where i = -Ki and 1/v = [1- (Ki/Ki')]/Vmax; in the Cornish-Bowden plot, they intersect at a point where i = -Ki' and S/v = KM[1- (Ki'/Ki)]/Vmax. To make wizard Ki and Ki' calculations, linear data fitting was performed using Microsoft Office Excel v.2013. The linear equations were obtained by linear regression R^2>0.85. Linear regression retrieved the linear equation y(n) = […]), which calculates the reciprocal of the ratio of reaction 1/v (y(n)) as a function of variable inhibitor concentration (x(n)). The term b(n) is the reciprocal of the maximum ratio of reaction (1/Vmax) obtained at a fixed S concentration and variable i concentration. The Dixon and Cornish-Bowden plots were constructed using a mean of each point obtained from three independent experiments performed in duplicate. Three interception points were obtained by the combination of two linear equations for each time point. Then, Ki and Ki' were calculated using equation (7) and were expressed as mean values ± SEM (standard error of the mean).

The test system of the next test is L. (L.) amazonensis. Further details: method as in PMID 22735546. As to conditions: cited from earlier work.

The inhibition is the change of the read-out against control, counted positive when it falls. A low value points to little suppression. Turning to `Oc1cc(O)c2c(c1)O[C@H](c1ccc(O)c(O)c1)[C@H](O)C2` [(−)-epicatechin], in test [1], the “Inhibition of ARG-1” value is “did not significantly inhibit” and testing at 1000 µM gave an inhibition of 22%. Further, in test [2], the “Leishmanicidal activity / effect on growth of the parasite” value (from here on “Leishmanicidal activity / effect”) is reported as “little effect on the growth of the parasite”.

Broadly, the IC50 is the concentration at which inhibition is half-maximal. A word on the Ki: it is the equilibrium dissociation constant of an inhibitor or competing ligand from its target. Turning to `O=C(OC1Cc2c(O)cc(O)cc2OC1c1cc(O)c(O)c(O)c1)c1cc(O)c(O)c(O)c1` (single isomer, unassigned; (-)) [EGCG, (−)-Epigallocatechin-3-gallate], in test [3], the IC50 is 3.8 ± 0.1 µM. Also, in test [4], the “Ki'” value is 12.5 ± 0.4 µM, the Mode of inhibition entry is “mixed inhibitor” and the Ki was determined as 4 ± 0.5 µM. Moreover, in test [1], the “Inhibition of ARG-1” value is “did not significantly inhibit” and the inhibition at 1000 µM was found to be 29%. Besides, the “Leishmanicidal activity / effect” value in test [2] is given as “shows leishmanicidal activity”. Also, in the test with L. (L.) amazonensis, the “Effect on parasite mitochondria” value is listed as “damages mitochondria, contributing to the death of the parasite”.

Take `O=C(O)c1cc(O)c(O)c(O)c1` [Gallic acid]: the IC50 in test [3] turned out to be 2.2 ± 0.2 µM. For the same compound, in test [4], the “Ki'” value worked out at 7.2 ± 1.4 µM, the Mode of inhibition result is listed as “Noncompetitive” and the Ki was 7.2 ± 1.4 µM. Moreover, the Mode of inhibition result in test [4] (listed as gallic acid) is “noncompetitive inhibitor”. In test [1], the “Inhibition of ARG-1” value is on record as “did not significantly inhibit” and the inhibition at 1000 µM was determined as 20%.

With `Oc1cc(O)c2c(c1)O[C@H](c1ccc(O)c(O)c1)[C@@H](O)C2` [(+)-catechin], in test [1], the “Inhibition of ARG-1” value is recorded as “did not significantly inhibit” and the inhibition at 1000 µM worked out at 26%. The “Leishmanicidal activity / effect” value in test [2] is on record as “little effect on the growth of the parasite”.
